From US6858630B2, “Naphthimidazole derivatives and their use as thrombopoietin mimetics” (SmithKline Beecham Corporation, priority 1999, dated 2005)

Target: T1, TPO receptor (Homo sapiens, UniProt P40238)
T1 construct: expressed in transfected cells; host or cells: murine BaF3 cells
T1 sequence (P40238 26-635): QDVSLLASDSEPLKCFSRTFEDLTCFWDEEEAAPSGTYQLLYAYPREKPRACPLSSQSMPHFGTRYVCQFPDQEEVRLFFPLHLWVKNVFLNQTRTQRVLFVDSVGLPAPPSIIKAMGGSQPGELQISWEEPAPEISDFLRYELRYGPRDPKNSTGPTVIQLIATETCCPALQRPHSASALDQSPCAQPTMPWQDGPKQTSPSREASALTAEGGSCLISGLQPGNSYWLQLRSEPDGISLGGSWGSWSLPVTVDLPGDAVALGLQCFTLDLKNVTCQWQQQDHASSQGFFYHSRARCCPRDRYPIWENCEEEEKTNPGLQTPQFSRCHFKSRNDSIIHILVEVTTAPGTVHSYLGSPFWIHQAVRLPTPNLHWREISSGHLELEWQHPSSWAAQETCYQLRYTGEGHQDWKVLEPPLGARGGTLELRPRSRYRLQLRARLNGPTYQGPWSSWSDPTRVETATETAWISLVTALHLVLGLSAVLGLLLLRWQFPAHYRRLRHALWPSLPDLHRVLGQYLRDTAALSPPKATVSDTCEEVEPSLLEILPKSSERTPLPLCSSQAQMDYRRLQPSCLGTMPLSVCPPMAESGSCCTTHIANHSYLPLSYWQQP
Experiment: Luciferase assay (TPO-responsive BaF3 cell line)
Type: cell-based, murine
Conditions: at a concentration of 2 uM; control is the maximal response to TPO
Description: Compounds of the present invention were tested for potency as mimetics of the TPO receptor in a Luciferase assay such as described in Lamb, et al., Nucleic Acids Research 23; 3283-3289 (1995) and Seidel, et al., Proc. Natl. Acad. Sci., USA 92: 3041-3045 (1995) by substituting a TPO-responsive BaF3 cell line (Vigon et al. Proc. Natl. Acad. Sci. USA 1992, 89, 5640-5644) for the HepG2 cells utilized therein. The murine BaF3 cells express TPO receptors and closely match the pattern of STAT (signal transducers and activators of transcription) activation observed in primary murine and human bone marrow cells.

## COc1c(-c2ccc(C)cc2)cccc1-c1nc2c(ccc3cc(S(=O)(=O)O)cc(O)c32)[nH]1.Cl [Compound 14, 2-(3-[4′-Methylphenyl]-2-methoxyphenyl)-9-hydroxy-naphth[1,2-d]imidazole-7-sulfonic acid hydrochloride]
  activation, % of control in the luciferase assay: about 25%
